Our source for the IC50 and inhibition values is US20080125409A1, “1,5-Diheterocycle-1H-Triazole Derivative” (DAIICHI PHARMACEUTICAL CO., LTD., priority 2004, published 2008).

Structures are written as SMILES.

The subject of test [1] is platelet-rich plasma (PRP), collagen-induced platelet aggregation. The test is described as follows: Collagen-stimulated platelet aggregation inhibition in human platelet-rich plasma. The class given is cell-based. The note with it: 2 min, 2 min at 37° C. with compound. The method, then:
Platelet Aggregation Suppressing Action
Human blood was collected using a 3.13% solution of sodium citrate as an anticoagulant, in a volume 1/10 of the blood volume, and was centrifuged at 180 g for 10 minutes to separate platelet-rich plasma (PRP) from the blood. The PRP in the upper layer was isolated, and then the lower layer was centrifuged at 1600 g for 10 minutes to isolate the platelet-poor plasma (PPP) in the upper layer. 1 μL of a solution of the compound of the Examples) was added to 200 μL of the PRP, and the mixture was allowed to stand for 2 minutes at 37° C. Then, 2 μL of collagen was added thereto, so as to induce platelet aggregation. The rate of platelet aggregation was measured using a PAM-12C (SSR Engineering). By taking the light transmittance of the PPP as the value indicating 100% aggregation, the rates of platelet aggregation at various concentrations of the compound of the Examples were determined, and the IC50 value was calculated.

Another test addresses T1, COX-1 (Ovis aries, UniProt P05979).
T1 construct: purchased Cayman Chemical Company 560101 and 560121
T1 sequence (P05979 25-600): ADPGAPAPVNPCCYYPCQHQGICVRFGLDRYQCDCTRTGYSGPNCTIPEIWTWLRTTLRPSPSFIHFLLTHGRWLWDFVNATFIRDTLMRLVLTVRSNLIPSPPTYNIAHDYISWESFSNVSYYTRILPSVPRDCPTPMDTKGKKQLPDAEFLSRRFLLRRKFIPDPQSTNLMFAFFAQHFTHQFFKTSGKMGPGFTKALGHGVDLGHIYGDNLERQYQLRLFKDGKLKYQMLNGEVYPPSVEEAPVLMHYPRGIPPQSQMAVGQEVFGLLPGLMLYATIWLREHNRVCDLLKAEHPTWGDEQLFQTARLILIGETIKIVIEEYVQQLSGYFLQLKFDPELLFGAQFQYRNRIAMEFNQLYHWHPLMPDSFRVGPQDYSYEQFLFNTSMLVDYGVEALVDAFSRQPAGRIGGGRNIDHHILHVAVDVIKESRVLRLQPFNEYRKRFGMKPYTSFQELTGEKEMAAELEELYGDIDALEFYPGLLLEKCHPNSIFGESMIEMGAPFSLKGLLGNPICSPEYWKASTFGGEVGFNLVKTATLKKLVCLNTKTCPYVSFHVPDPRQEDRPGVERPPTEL
The test is described as follows: Cyclooxygenase-1 (COX-1) inhibitory effect (Cayman COX Inhibitor Screening Assay Kit, PGF2α ELISA). The class given is biochemical. The note with it: in the presence of 50 μM of the compound; PGF2α production without compound regarded as 100%; read-out: COX inhibitory activity COX-1 (rate of COX-1 inhibition). The text has this: Cyclooxygenase-1 (COX-1) Inhibitory Effect
For the measurement of the COX-1 inhibitory activity of the compound of the Examples, a COX Inhibitor Screening Assay Kit manufactured by Cayman Chemical Company (Catalog Nos. 560101 and 560121) was used.
Before starting the measurement, a reaction buffer, heme, arachidonic acid, SnCl2, EIA buffer, a washing buffer, prostaglandin (PG)-screening EIA standard solution, PG-screening acetylcholinesterase (AchE), a tracer […], and PG-screening EIA antiserum were provided.
(1) Production of PGF2α by COX-1
A reaction solution containing the compound of the Examples (50 μM) and COX-1 was allowed to stand at 37° C. for 10 minutes, then 10 μl of arachidonic acid was added thereto, and the resultant mixture was allowed to stand at 37° C. for 2 minutes. After the reaction, 50 μl of 1 N hydrochloric acid was added to the reaction mixture to thereby stop the reaction, and 100 μl of a SnCl2 solution was added thereto. The resultant mixture was allowed to stand at room temperature for 5 minutes.
(2) Quantification of PGF2α by ELISA
50 μl of antiserum (rabbit anti-PGF2α antibody) was added to each of the wells of a 96-well plate coated with mouse anti-rabbit IgG. Then, 50 μl of a solution prepared by diluting the aforementioned reaction solution for the production of PGF2α to 2000-folds, and 50 μl of an AchE tracer were added sequentially to the wells, and the plate was allowed to stand at room temperature for 18 hours. Each well was washed 5 times with the washing buffer to remove excessive AchE tracer, and then 200 μl of Ellman reagent was added to each well. The plate was kept in a dark room for 60 minutes, and then, absorbance at 405 nm was measured.
(3) Calculation of Inhibitory Activity of the Compound of the Examples
A standard curve was produced using a PG-screening EIA standard solution, and the amount of PGF2α production was determined from the absorbance obtained in the above. The rate of COX-1 inhibition in the presence of 50 μM of the compound of the Examples was calculated.

Regarding `COc1ccc(-n2nc(C(=O)NC3(C)CC3)nc2-c2ccc(C)cn2)cn1` [Example 44, N-(1-Methylcyclopropyl)-1-(6-methoxy-3-pyridyl)-5-(5-methyl-2-pyridyl)-1H-1,2,4-triazole-3-carboxamide], in test [1], the IC50 was determined as 220 nM. As to `COc1ccc(-n2nc(C(=O)N3CCC(F)(F)CC3)nc2-c2ccc(CO)cn2)cn1` [Example 41, 1-[5-(5-Hydroxymethyl-2-pyridyl)-1-(6-methoxy-3-pyridyl)-1H-1,2,4-triazole-3-carbonyl]-4,4-difluoropiperidine], the inhibition at 50 µM at COX-1 was 4.6%. The IC50 in test [1] came out at 220 nM.

As to `COc1ccc(-n2nc(C(=O)NC(C)(C)C)nc2-c2ccc(C#N)cn2)cn1` [Example 3, N-tert-Butyl-5-(5-cyano-2-pyridyl)-1-(6-methoxy-3-pyridyl)-1H-1,2,4-triazole-3-carboxamide], on COX-1, the inhibition at 50 µM amounted to 19.5%. Besides, the half-inhibitory concentration (IC50) in test [1] came out at 160 nM. `COc1ccc(-n2nc(C(=O)NCC(C)(C)C)nc2-c2ccc(C)cn2)cn1` [Example 18, 1-(6-Methoxy-3-pyridyl)-5-(5-methyl-2-pyridyl)-1H-1,2,4-triazole-3-carboxylic acid N-neopentylamide]: the 50% inhibitory concentration (IC50) in test [1] amounted to 13 nM.

As for `COc1ccc(-n2nc(C(=O)NC(C)(C)C)nc2-c2ccc(Cl)cn2)cn1` [Example 11, N-tert-Butyl-5-(5-chloro-2-pyridyl)-1-(6-methoxy-3-pyridyl)-1H-1,2,4-triazole-3-carboxamide], the IC50 in test [1] was determined as 88 nM. As to `COc1ccc(-n2nc(C(=O)N3CCC[C@H]3CF)nc2-c2ccc(C)cn2)cn1` [Example 37, (2S)-1-[1-(6-Methoxy-3-pyridyl)-5-(5-methyl-2-pyridyl)-1H-1,2,4-triazole-3-carbonyl]-2-fluoromethylpyrrolidine], the inhibition at 50 µM on COX-1 is 6.6%. The IC50 in test [1] is 16 nM. With `COc1ccc(-n2nc(C(=O)NC(C)C)nc2-c2ccccn2)cn1` [Example 22, N-isoPropyl-1-(6-methoxy-3-pyridyl)-5-(2-pyridyl)-1H-1,2,4-triazole-3-carboxamide], the IC50 in test [1] came to 530 nM. On the same count and under the same terms, to `COc1ccc(-n2nc(C(=O)NC(C)(C)C)nc2-c2ccc(N)cn2)cn1` [Example 14, 5-(5-Amino-2-pyridyl)-1-(6-methoxy-3-pyridyl)-1H-1,2,4-triazole-3-carboxylic acid N-tert-butylamide] belongs 130 nM. For `COc1ccc(-n2nc(C(=O)NC(C)(C)C)nc2-c2ccccn2)cn1` [Example 1, N-tert-Butyl-1-(6-methoxy-3-pyridyl)-5-(2-pyridyl)-1H-1,2,4-triazole-3-carboxamide], the inhibition at 50 µM on COX-1 came to 7.5%. Also, in test [1], the 50% inhibitory concentration (IC50) came to 40 nM. The matching figures for `COc1ccc(-n2nc(C(=O)NC(C)(C)C)nc2-c2cnc(C)cn2)cn1` [Example 6, N-tert-Butyl-1-(6-methoxy-3-pyridyl)-5-(5-methyl-2-pyrazinyl)-1H-1,2,4-triazole-3-carboxamide]: -15.8% and 170 nM.

For `COc1ccc(-n2nc(C(=O)N3CCN(C)CC3)nc2-c2ccc(C)cn2)cn1` [Example 29, 1-[1-(6-Methoxy-3-pyridyl)-5-(5-methyl-2-pyridyl)-1H-1,2,4-triazole-3-carbonyl]-4-methylpiperazine], the inhibition at 50 µM on COX-1 was -23.1%. Moreover, the 50% inhibitory concentration (IC50) in test [1] was 220 nM. For `Cc1ccc(-c2nc(C(=O)NC(C)(C)C)nn2-c2ccc(C)nc2)nc1` [Example 35, N-tert-Butyl-1-(6-methyl-3-pyridyl)-5-(5-methyl-2-pyridyl)-1H-1,2,4-triazole-3-carboxamide] the same measures were -17.2% and 120 nM. For `COc1ccc(-n2nc(C(=O)N3CCOCC3)nc2-c2ccc(C)cn2)cn1` [Example 38, 4-[1-(6-Methoxy-3-pyridyl)-5-(5-methyl-2-pyridyl)-1H-1,2,4-triazole-3-carbonyl]morpholine], the inhibition at 50 µM at COX-1 was 0.9%. For the same molecule, the IC50 in test [1] turned out to be 250 nM.

Usually IC50 stands for the concentration that gives 50% inhibition. As usually defined, the inhibition is the relative decrease from the control value, in per cent.
